# Source: patent publication US9452997B2, “Piperidine and piperazine derivatives as autotaxin inhibitors” (Merck Patent GmbH, priority 2009, dated 2016)
# Molecular target: T1, Recombinant autotaxin (Homo sapiens, UniProt Q13822)
# T1 construct: made in house; host or cells: Hi5 insect cells (baculovirus)
# Assay: Autotaxin assay (Amplex Red, LPC substrate)
# Format: biochemical
# Settings: recombinant autotaxin, LPC substrate, Amplex Red detection; values given as upper bounds
# Experimental: Autotaxin activity is measured indirectly by means of Amplex Red Reagent. In this course, Amplex Red is measured as fluorogenic indicator for generated H2O2. Autotaxin converts substrate lysophosphatidylcholine (LPC) to phosphocholine and lysophosphatidylic acid (LPA). After the conversion phosphocholine is reacted with alkaline phosphatase to obtain inorganic phosphate and choline. During the next step choline is oxidized with choline oxidase to yield betaine, whereby H2O2 is generated. H2O2 reacts with Amplex Red Reagent in the presence of peroxidase (Horseradish peroxidase) in an 1:1 stochiometry and yields highly fluorescent resorufin. The generated fluorescence is measured in a reaction-dependent kinetic mode in order to enable subtraction of fluorescence signals of possible other fluorescent compounds that are not part of the reaction from total measured fluorescence.
# 1.5 μl of a standard solution or of the compounds of the invention are dissolved in 20 mM Hepes pH 7.2 with maximally 7.7% DMSO in individual concentrations. The resulting solution is pre-incubated together with 10 μl (16 ng) of highly purified recombinant autotaxin in a black 384-hole microtiter plate for 30 min at 22° C.
# Thereafter, the reaction is started through the addition of 5 μL-a-lysophosphatidyl-choline (LPC), whereby the final concentration of LPC is 75 μM. The mixture is incubated for 90 min. at 37° C. After the incubation Amplex Red Reagent, peroxidase (Horseradish peroxidase) and choline oxidase are added. The fluorescence is immediately measured at a wavelength of 612 nm with an excitation wavelength of 485 nm in a “Tecan Ultra multimode” fluorescence reader. The activity of autotaxin is indirectly calculated via the amount of detected generated H2O2.
# For IC50 analysis, ten serial 1:3 dilutions starting at 30 μM for each compound were run in duplicates.
# IC50 values were calculated on normalized data. For normalization, control wells were added to each assay plate and the signal of uninhibited control wells was set to 100%, whereas the signal inhibited by 500 μM C14 LPA, (Avanti Polar Lipids, Cat#857120P) was set to 0%. Curves were fitted and IC50 values calculated by the following model using proprietory analysis software: Y=Bottom+(100−Bottom)/(1+10^((Log IC50−X)*HillSlope)) Where X is the logarithm of concentration. Y is the response; Y starts at Bottom and goes to Top with a sigmoid shape. Material
# Microtiter plate: PS-Microplate, 384-hole, small volume, black Corning, Cat#3677
# Protein: Recombinant autotaxin (baculoviral Hi5 expression)
# Substrate: L-a-lysophosphatidyl choline (chicken egg); Avanti Polar Lipids #830071P
# Standard: C14 LPA, Avanti Polar Lipids, Cat#857120P
# Detection Reagent: Amplex Red Reagent; Invitrogen #A12222; dissolved in 1.923 ml of DMSO peroxidase Type VI-A (horseradish), Sigma #P6782; dissolved in 7.45 ml of test buffer, Choline Oxidase; Sigma #C5896; dissolved in 2.47 ml test buffer
# Detection Reagent Mix: 1:100 dilution of Amplex Red Regent in test buffer
# Test buffer: 200 mM Tris-HCl, Merck, Cat #1.08219, pH 7.9; 0.1% BSA, lipid free, Roche Cat#775835
row,IC50 [nM],SMILES
1,< 1000,"O=C(/C=C/c1ccc(Br)cc1F)N1CCC(N2CCN(C(=O)c3ccc4[nH]nnc4c3)CC2)CC1 [Compound 83, (E)-1-{4-[4-(1H-Benzotriazole-5-carbonyl)-piperazin-1-yl]-piperidin-1-yl}-3-(4-bromo-2-fluoro-phenyl)-propenone]"
2,< 10000,"CSc1ccc(COC(=O)N2CCN(C3CCN(C(=O)c4ccc5[nH]nnc5c4)CC3)CC2)cc1 [Compound 149, 4-[1-(1H-Benzotriazole-5-carbonyl)-piperidin-4-yl]-piperazine-1-carboxylic acid 4-methylsulfanyl-benzyl ester]"
3,< 10000,"O=C(CCc1cc(Cl)c(F)c(Cl)c1)N1CCC(N2CCN(C(=O)c3ccc4[nH]nnc4c3)CC2)CC1 [Compound 133, 1-{4-[4-(1H-Benzotriazole-5-carbonyl)-piperazin-1-yl]-piperidin-1-yl}-3-(3,5-dichloro-4-fluoro-phenyl)-propan-1-one]"
4,< 1000,"CCc1ccc(COC(=O)N2CCN(C3CCN(C(=O)c4ccc5[nH]nnc5c4)CC3)CC2)cc1 [Compound 151, 4-[1-(1H-Benzotriazole-5-carbonyl)-piperidin-4-yl]-piperazine-1-carboxylic acid 4-ethyl-benzyl ester]"
5,< 10000,"O=C(c1ccc2[nH]nnc2c1)N1CCC(N2CCN(C(=O)c3ccccc3-c3cccc(C(F)(F)F)c3)CC2)CC1 [Compound 125, (1H-Benzotriazol-5-yl)-{4-[4-(3′-trifluoromethyl-biphenyl-2-carbonyl)-piperazin-1-yl]-piperidin-1-yl}-methanone]"
6,< 1000,"O=C(OCc1cc(Cl)cc(Cl)c1)N1CCC(C2CCN(C(=O)c3ccc4[nH]nnc4c3)CC2)CC1 [Compound 12, 1′-(1H-Benzotriazole-5-carbonyl)-[4,4′]bipiperidinyl-1-carboxylic acid 3,5-dichloro-benzyl ester]"
7,< 1000,"O=C(OCc1cc(C(F)(F)F)cc(C(F)(F)F)c1)N1CCN(C2CCN(C(=O)c3ccc4[nH]c(=S)[nH]c4c3)CC2)CC1 [Compound 161, 4-[1-(2-Thioxo-2,3-dihydro-1H-benzoimidazole-5-carbonyl)-piperidin-4-yl]-piperazine-1-carboxylic acid 3,5-bis-trifluoromethyl-benzyl ester]"
8,< 1000,"O=C(OCc1ccc(Br)cc1)N1CCC(N2CCN(C(=O)c3ccc4[nH]nnc4c3)CC2)CC1 [Compound 80, 4-[4-(1H-Benzotriazole-5-carbonyl)-piperazin-1-yl]-piperidine-1-carboxylic acid 4-bromo-benzyl ester]"
9,< 10000,"O=C(c1ccc2[nH]nnc2c1)N1CCC(N2CCN(C(=O)C3CC3c3ccc(Cl)cc3)CC2)CC1 (stereo not shown) [Compound 179, (1H-Benzoriazol-5-yl)-(4-{4-[2-(4-chloro-phenyl)-cyclopropanecarbonyl]-piperazin-1-yl}-piperidin-1-yl)-methanone]"
10,< 1000,"COc1ccc(Cl)cc1COC(=O)N1CCN(C2CCN(C(=O)c3ccc4[nH]nnc4c3)CC2)CC1 [Compound 38, 4-[1-(1H-Benzotriazole-5-carbonyl)-piperidin-4-yl]-piperazine-1-carboxylic acid 5-chloro-2-methoxy-benzyl ester]"
11,< 10000,"O=C(CN1CCC(N2CCN(C(=O)c3ccc4[nH]nnc4c3)CC2)CC1)Nc1cc(C(F)(F)F)cc(C(F)(F)F)c1 [Compound 180, 2-{4-[4-(1H-Benzotriazole-5-carbonyl)-piperazin-1-yl]-piperidin-1-yl}-N-(3,5-bis-trifluoromethyl-phenyl)-acetamide]"
12,< 1000,"O=C(OCc1cc(Cl)c(F)c(Cl)c1)N1CCN(C2CCN(C(=O)c3ccc4[nH]nnc4c3)CC2)CC1 [Compound 97, 4-[1-(1H-Benzotriazole-5-carbonyl)-piperidin-4-yl]-piperazine-1-carboxylic acid 3,5-dichloro-4-fluoro-benzyl ester]"
13,< 10000,"O=C(Cc1ccc(Cl)cc1)C(=O)N1CCN(C2CCN(C(=O)c3ccc4[nH]nnc4c3)CC2)CC1 [Compound 123, 1-{4-[1-(1H-Benzotriazole-5-carbonyl)-piperidin-4-yl]-piperazin-1-yl}-3-(4-chloro-phenyl)-propane-1,2-dione]"
14,< 1000,"O=C(OCc1ccc(C(F)(F)F)cc1)N1CCN(C2CCN(C(=O)c3ccc4[nH]nnc4c3)CC2)CC1 [Compound 34, 4-[1-(1H-Benzotriazole-5-carbonyl)-piperidin-4-yl]-piperazine-1-carboxylic acid 4-trifluoromethyl-benzyl ester]"
15,< 10000,"O=C(OCc1ccc(C(F)(F)F)cc1)N1CCC(N2CCC(c3ccc4[nH]c(=O)oc4c3)=N2)CC1 [Compound 107, 4-[3-(2-Oxo-2,3-dihydro-benzooxazol-6-yl)-4,5-dihydro-pyrazol-1-yl]-piperidine-1-carboxylic acid 4-trifluoromethyl-benzyl ester]"
16,< 1000,"O=C(OCc1ccc(OC(F)(F)F)c(Br)c1)N1CCN(C2CCN(C(=O)c3ccc4[nH]nnc4c3)CC2)CC1 [Compound 166, 4-[1-(1H-Benzotriazole-5-carbonyl)-piperidin-4-yl]-piperazine-1-carboxylic acid 3-bromo-4-trifluoromethoxy-benzyl ester]"
17,< 1000,"O=C(OCc1ccc(OC(F)(F)F)cc1)N1CCC(N2CCN(C(=O)c3ccc4[nH]nnc4c3)CC2)CC1 [Compound 76, 4-[4-(1H-Benzotriazole-5-carbonyl)-piperazin-1-yl]-piperidine-1-carboxylic acid 4-trifluoromethoxy-benzyl ester]"
18,< 10000,"O=C(CCc1ccc(Cl)cc1F)N1CCN(C2CCN(C(=O)c3ccc4[nH]c(=O)oc4c3)CC2)CC1 [Compound 64, 6-(4-{4-[3-(4-Chloro-2-fluoro-phenyl)-propionyl]-piperazin-1-yl}-piperidine-1-carbonyl)-3H-benzooxazol-2-one]"
19,< 10000,"O=C(OCc1ccc(C(F)(F)F)cc1)N1CCN(C2CCN(C(=O)c3ccc4[nH]c(=O)sc4c3)CC2)CC1 [Compound 126, 4-[1-(2-Oxo-2,3-dihydro-benzothiazole-6-carbonyl)-piperidin-4-yl]-piperazine-1-carboxylic acid 4-trifluoromethyl-benzyl ester]"
20,< 1000,"O=C(CCc1ccccc1O)N1CCC(N2CCN(C(=O)c3ccccc3-c3cccc(C(F)(F)F)c3)CC2)CC1 [Compound 21, 3-(2-Hydroxy-phenyl)-1-{4-[4-(3′-trifluoromethyl-biphenyl-2-carbonyl)-piperazin-1-yl]-piperidin-1-yl}-propan-1-one]"
21,< 1000,"O=C(OCc1ccc(Cl)c(Cl)c1)N1CCC(N2CCN(C(=O)c3ccc4[nH]nnc4c3)CC2)CC1 [Compound 85, 4-[4-(1H-Benzotriazole-5-carbonyl)-piperazin-1-yl]-piperidine-1-carboxylic acid 3,4-dichloro-benzyl ester]"
22,< 10000,"CS(=O)(=O)Nc1ccc(C(=O)N2CCN(C3CCN(C(=O)CCc4ccc(C(F)(F)F)cc4)CC3)CC2)cc1 [Compound 59, N-[4-(4-{1-[3-(4-Trifluoromethyl-phenyl)-propionyl]-piperidin-4-yl}-piperazine-1-carbonyl)-phenyl]-methanesulfonamide]"
23,< 30000,"N[C@@H](Cc1c[nH]cn1)C(=O)N1CCN(C2CCN(C(=O)OCc3ccc(C(F)(F)F)cc3)CC2)CC1 [Compound 89, 4-{4-[(S)-2-Amino-3-(1H-imidazol-4-yl)-propionyl]-piperazin-1-yl}-piperidine-1-carboxylic acid 4-trifluoromethyl-benzyl ester]"
24,< 10000,"O=C(OCc1ccc(C(F)(F)F)cc1)N1CCC(NC2CCN(C(=O)c3ccc4[nH]nnc4c3)C2)CC1 (stereo not shown) [Compound 70, 4-[1-(1H-Benzotriazole-5-carbonyl)-pyrrolidin-3-ylamino]-piperidine-1-carboxylic acid 4-trifluoromethyl-benzyl ester]"
25,< 1000,"O=C(NC1CCC(N2CCN(C(=O)OCc3cc(C(F)(F)F)cc(C(F)(F)F)c3)CC2)CC1)c1ccc2[nH]nnc2c1 (stereo not shown) [Compound 186, 4-{4-[(1H-Benzotriazole-5-carbonyl)-amino]-cyclohexyl}-piperazine-1-carboxylic acid 3,5-bis-trifluoromethyl-benzyl ester]"
